PMC9090415, “Discovery of small molecule inhibitors of Plasmodium falciparum apicoplast DNA polymerase” (Journal of Enzyme Inhibition and Medicinal Chemistry, 2022)

Target: T1, bacteriophage T4 DNA polymerase (Enterobacteria phage T4, UniProt P04415)
T1 construct: made in house
T1 sequence (P04415 1-898): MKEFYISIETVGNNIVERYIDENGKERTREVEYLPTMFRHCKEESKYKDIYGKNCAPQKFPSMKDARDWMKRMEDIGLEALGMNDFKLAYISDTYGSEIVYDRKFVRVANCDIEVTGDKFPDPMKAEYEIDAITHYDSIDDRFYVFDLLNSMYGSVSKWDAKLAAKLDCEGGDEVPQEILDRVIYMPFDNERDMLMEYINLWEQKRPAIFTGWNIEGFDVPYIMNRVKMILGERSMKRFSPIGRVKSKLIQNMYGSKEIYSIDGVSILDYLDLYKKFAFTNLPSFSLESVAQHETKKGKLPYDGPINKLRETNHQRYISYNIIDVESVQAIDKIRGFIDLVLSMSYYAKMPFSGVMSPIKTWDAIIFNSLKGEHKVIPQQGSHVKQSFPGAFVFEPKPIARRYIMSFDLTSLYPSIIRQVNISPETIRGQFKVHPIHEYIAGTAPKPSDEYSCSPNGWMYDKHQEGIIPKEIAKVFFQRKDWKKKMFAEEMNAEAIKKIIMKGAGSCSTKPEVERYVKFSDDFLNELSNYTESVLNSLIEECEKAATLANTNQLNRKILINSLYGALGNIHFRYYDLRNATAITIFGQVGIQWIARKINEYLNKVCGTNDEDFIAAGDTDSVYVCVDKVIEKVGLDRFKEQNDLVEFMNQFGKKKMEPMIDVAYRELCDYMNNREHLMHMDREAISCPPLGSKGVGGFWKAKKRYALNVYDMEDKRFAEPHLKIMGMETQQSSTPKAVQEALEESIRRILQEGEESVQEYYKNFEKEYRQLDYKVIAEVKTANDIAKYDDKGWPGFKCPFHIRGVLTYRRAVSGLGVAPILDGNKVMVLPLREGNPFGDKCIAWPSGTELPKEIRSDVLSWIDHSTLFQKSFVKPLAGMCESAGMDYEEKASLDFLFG
Test: Counter-screen against bacteriophage T4 DNA polymerase
Format: biochemical
Settings: for % inhibition T4 10' 2.5 / % inhibition T4 10' 5 / % inhibition T4 10' 10 / % inhibition T4 10' 20 / % inhibition T4 10' 40 / % inhibition T4 10' 80: read at 10'
Description: Codon-optimized, exonuclease-deficient Pf-apPOL was overexpressed in E. coli BL21 (DE3) and purified as described. The protein was dialysed against two, 1-liter changes of 20 mM Tris-HCl (pH 8.0), 400 mM NaCl, and 20% glycerol. Plasmodium bergei and Babesia bovis apPOLs (Pb-apPOL and Bb-apPOL, respectively) were codon-optimized, expressed, and purified as for Pf-apPOL[15]. Bacteriophage T4 DNA polymerase was purified as described. The DNA oligonucleotides used to make the high-throughput substrate were obtained from Integrated DNA Technologies. Deoxynucleotides were purchased from Strategene. All other materials came from Fisher Scientific.
Each compound was tested in a dose-response format to determine IC50 values. […] T4 DNA polymerase can be produced in large quantities, and is in the same family (B-family) as the replicative human DNA polymerases (α, δ, and ε)[20].

Cc1ccc(C)n1-c1ccc(C(=O)NNC(=O)c2ccc3nccnc3c2)cc1 [Molecule 53, O=C(c1ccc(cc1)n1c(C)ccc1C)NNC(=O)c1ccc2c(c1)nccn2]
% inhibition T4 10' (DRC-2, concentration 2.5): 15% | % inhibition T4 10' (DRC-2, concentration 5): 24% | % inhibition T4 10' (DRC-2, concentration 10): 29% | % inhibition T4 10' (DRC-2, concentration 20): 31% | % inhibition T4 10' (DRC-2, concentration 40): 29% | % inhibition T4 10' (DRC-2, concentration 80): 38% | % inhibition T4 40' (DRC-2, concentration 2.5): 15% | % inhibition T4 40' (DRC-2, concentration 5): 24% | % inhibition T4 40' (DRC-2, concentration 10): 29% | % inhibition T4 40' (DRC-2, concentration 20): 31% | % inhibition T4 40' (DRC-2, concentration 40): 29% | % inhibition T4 40' (DRC-2, concentration 80): 38% | % inhibition T4 90' (DRC-2, concentration 5): 22% | % inhibition T4 90' (DRC-2, concentration 20): 29% | % inhibition T4 90' (DRC-2, concentration 40): 29% | % inhibition T4 180' (DRC-2, concentration 10): 22% | % inhibition T4 180' (DRC-2, concentration 20): 24%

O=C1CSC2=NC3=C(CCc4ccccc43)C(c3cccs3)N12 (stereo not shown) [Molecule 59, O=C1CSC2=NC3=C(C(N12)c1cccs1)CCc1c3cccc1]
% inhibition T4 10' 2.5 (DRC-1, concentration 2.5): 10.0127% | % inhibition T4 10' 5 (DRC-1, concentration 5): 9.284% | % inhibition T4 10' 10 (DRC-1, concentration 10): 14.9012% | % inhibition T4 10' 20 (DRC-1, concentration 20): 17.5613% | % inhibition T4 10' 40 (DRC-1, concentration 40): 23.9437% | % inhibition T4 10' 80 (DRC-1, concentration 80): 22.8817% | % inhibition T4 70' 2.5 (DRC-1, read at 70', concentration 2.5): 9.951% | % inhibition T4 70' 5 (DRC-1, read at 70', concentration 5): 10.6029% | % inhibition T4 70' 10 (DRC-1, read at 70', concentration 10): 14.1389% | % inhibition T4 70' 20 (DRC-1, read at 70', concentration 20): 13.8668% | % inhibition T4 70' 40 (DRC-1, read at 70', concentration 40): 19.0347% | % inhibition T4 70' 80 (DRC-1, read at 70', concentration 80): 18.0959% | % inhibition T4 130' 2.5 (DRC-1, read at 130', concentration 2.5): 7.352% | % inhibition T4 130' 5 (DRC-1, read at 130', concentration 5): 7.713% | % inhibition T4 130' 10 (DRC-1, read at 130', concentration 10): 10.7499% | % inhibition T4 130' 20 (DRC-1, read at 130', concentration 20): 9.8688% | % inhibition T4 130' 40 (DRC-1, read at 130', concentration 40): 15.3496% | % inhibition T4 130' 80 (DRC-1, read at 130', concentration 80): 16.7896% | % inhibition T4 10' 2.5 (DRC-2, concentration 2.5): 31% | % inhibition T4 10' 5 (DRC-2, concentration 5): 18% | % inhibition T4 10' 10 (DRC-2, concentration 10): 6.37% | % inhibition T4 10' 20 (DRC-2, concentration 20): 8% | % inhibition T4 10' 40 (DRC-2, concentration 40): 6% | % inhibition T4 10' 80 (DRC-2, concentration 80): 11% | % inhibition T4 40' 2.5 (DRC-2, read at 40', concentration 2.5): 31% | % inhibition T4 40' 5 (DRC-2, read at 40', concentration 5): 18% | % inhibition T4 40' 10 (DRC-2, read at 40', concentration 10): 6.37% | % inhibition T4 40' 20 (DRC-2, read at 40', concentration 20): 8% | % inhibition T4 40' 40 (DRC-2, read at 40', concentration 40): 6% | % inhibition T4 40' 80 (DRC-2, read at 40', concentration 80): 11% | % inhibition T4 90' 2.5 (DRC-2, read at 90', concentration 2.5): 30% | % inhibition T4 90' 5 (DRC-2, read at 90', concentration 5): 18% | % inhibition T4 90' 10 (DRC-2, read at 90', concentration 10): 8% | % inhibition T4 90' 20 (DRC-2, read at 90', concentration 20): 8% | % inhibition T4 90' 40 (DRC-2, read at 90', concentration 40): 6.37% | % inhibition T4 90' 80 (DRC-2, read at 90', concentration 80): 11% | % inhibition T4 180' 2.5 (DRC-2, read at 180', concentration 2.5): 24% | % inhibition T4 180' 5 (DRC-2, read at 180', concentration 5): 15% | % inhibition T4 180' 10 (DRC-2, read at 180', concentration 10): 5% | % inhibition T4 180' 20 (DRC-2, read at 180', concentration 20): 4% | % inhibition T4 180' 40 (DRC-2, read at 180', concentration 40): 5.53% | % inhibition T4 180' 80 (DRC-2, read at 180', concentration 80): 9%

COc1cccc(Oc2c(C(F)(F)F)oc3cc(OC(=O)N(C)C)ccc3c2=O)c1 [Molecule 52, COc1cccc(c1)Oc1c(=O)c2ccc(cc2oc1C(F)(F)F)OC(=O)N(C)C]
% inhibition T4 10' (DRC-2, concentration 20): 10% | % inhibition T4 10' (DRC-2, concentration 40): 17% | % inhibition T4 40' (DRC-2, concentration 10): 7% | % inhibition T4 40' (DRC-2, concentration 20): 10% | % inhibition T4 90' (DRC-2, concentration 5): 3% | % inhibition T4 90' (DRC-2, concentration 10): 7% | % inhibition T4 180' (DRC-2, concentration 20): 3% | % inhibition T4 180' (DRC-2, concentration 80): 17%
